Measurements reported in PMC7077018, “Gas chromatography-mass spectrometry analysis, phytochemical screening and antiprotozoal effects of the methanolic Viola tricolor and acetonic Laurus nobilis extracts” (BMC Complementary Medicine and Therapies, 2020).
Converted amounts (≈) assume the structure as drawn. Like-named read-outs stand apart in the source and are kept apart here. Blank lines part the entries; values can stand above or below the compound they belong to.

What was measured:
[1] = test system: human foreskin fibroblast (HFF) cells; assay: Cytotoxicity assay on normal cells (CCK-8); type: cell-based; conditions: HFF cell viability, 24 h
Experimental: (§1) Cultures of Human foreskin fibroblast (HFF; HFF-1 ATCC® SCRC-1041™), Madin–Darby bovine kidney (MDBK; ECACC) and mouse embryonic fibroblast (NIH/3 T3; ATCC® CRL-1658™) cells were retrieved from − 80 °C stock and cultured continuously at 37 °C under atmosphere 5% CO2 in our laboratory. The NIH/3 T3 and HFFs cells were preserved in Dulbecco Modified Eagle’s Medium (DMEM; Gibco, Grand Island, NY, USA), while MDBK cell line grown in Minimum Essential Medium Eagle (MEM; Gibco). All mediums were treated with 2 mM glutamine, 0.5% penicillin/streptomycin (Gibco) and 10% inactivated fetal bovine serum. Every 72 to 96 h, the medium was replaced, and once 80% confluence was reached, the cell collection was performed by sub-culture protocol. To confirm the absence of mycoplasma contamination, 4, 6-diamidino-2-phenylindole dihydrochloride (Sigma-Aldrich, USA) stain was used.
(§2) The cell viability test was conducted in a 96-well plate as described elsewhere. Briefly, an aliquot of (100 μL) cells was implanted at 5 × 10^4 cells/mL in DMEM or MEM with fetal bovine serum and incubated overnight under atmosphere 5% CO2 at 37 °C for attachment. Using two-fold dilutions, aliquots (10 μL) of herbal extracts and reference drugs were added in triplicate per well and further incubated for 24 h. The positive control wells containing cells mixed with the medium in 0.4% DMSO, whereas the negative control wells containing culture medium only. After a 24-h incubation, Cell Counting Kits-8 (CCK-8) (10 μL) was added per well and then plate incubation was conducted for an additional 3 h and a microplate reader was used to assess the absorbance at 450 nm.

[2] = test system: mouse embryonic fibroblast (NIH/3 T3) cells; assay: Cytotoxicity assay on normal cells (CCK-8); type: cell-based; conditions: 24 h
Experimental: as §1, §2

[3] = test system: Madin–Darby bovine kidney (MDBK) cells; assay: Cytotoxicity assay on normal cells (CCK-8); type: cell-based; conditions: MDBK cell viability, 24 h
Experimental: as §1, §2

B. caballi = assay: Babesia fluorescent (SYBR Green I) in vitro growth inhibition assay; type: cell-based; conditions: for IC50: B. caballi, in vitro, 4 days
Source text: (§3) For the in vitro experiments, a German strain B. divergens, Argentine strain B. bigemina, Texas strain B. bovis, were cultivated in cattle RBCs, while USDA strains of equine piroplasm parasites (T. equi and B. caballi) were maintained in horse RBCs. […] For conducting the in vivo study, female BALB/c mice, aged six-week, obtained from CLEA Japan were infected with B. microti Munich strain [1]. […] GIT medium replenished with 40% horse serum was used as a growth medium for B. caballi parasite culture. To ensure free-bacterial contamination, all medium was supplemented with amphotericin B (0.15 μg/mL) (Sigma-Aldrich, USA), streptomycin (60 U/mL) and penicillin G (60 U/mL). The Babesia fluorescent assay was carried out on the in vitro culture as previously reported elsewhere. […] On day four of culture, an aliquot (100 μL) of lysis buffer was added to 0.2 μL/mL SG1 per well; subsequently, it was covered with aluminum foil to prevent exposure to light. After a 6-h incubation at 37 °C, fluorescence readings were acquired on a spectrofluorimeter (Fluoroskan Ascent, Thermo Fisher Scientific, USA) with a 485 nm excitation wavelength and a 518 nm emission wavelength. The IC50 values of the two extracts, DMA and ATV were established from the in vitro growth inhibition by nonlinear regression curve fit on a GraphPad Prism (GraphPad Software Inc., USA). While for in vivo, the significant variations (p < 0.05) among group mean values on parasitemia and one-way ANOVA Tukey's test in GraphPad Prism version 5.0 was used to analyze hematology profiles in mice infected with B. microti.

T. equi = assay: as above; type: cell-based; conditions: for IC50: T. equi, in vitro, 4 days
Source text: as §3

B. divergens = assay: as above; type: cell-based; conditions: for IC50: B. divergens, in vitro, 4 days
Source text: as §3

B. bovis = assay: as above; type: cell-based; conditions: for IC50: B. bovis, in vitro, 4 days
Source text: as §3

B. bigemina = assay: as above; type: cell-based; conditions: for IC50: B. bigemina, in vitro, 4 days
Source text: as §3

B. microti = assay: Chemotherapeutic effects against B. microti in infected BALB/c mice; type: in vivo
Experimental: For the in vitro experiments, a German strain B. divergens, Argentine strain B. bigemina, Texas strain B. bovis, were cultivated in cattle RBCs, while USDA strains of equine piroplasm parasites (T. equi and B. caballi) were maintained in horse RBCs. The parasite incubation occurred at 37 °C in a humidifying chamber under 90% N2, 5% O2, and 5% CO2 atmosphere using a microaerophilic stationary-phase culture. For conducting the in vivo study, female BALB/c mice, aged six-week, obtained from CLEA Japan were infected with B. microti Munich strain [1].
Twenty-five mice were placed in an environment free from pathogens with 22 °C temperature and adjusted humidity and under 12 h light and 12 h darkness and randomly distributed into five groups. The mice in groups 2 through 5 were obtained 500 μL of 1 × 10^7B. microti iRBC by intraperitoneal (i.p.) injection. Group 1 served as a negative control and was neither infected nor treated. At 1% parasitemia, drug treatment of the mice by i.p. started, continuing for 5 days. Group 2 act as a positive control group and received 95% DDW and 5% DMSO. […] The drug administration lasted for 5 days starting from the fourth day to the eighth day post-infection (p.i.), and parasitemia was checked by preparing Giemsa-stained smears every 2 days in about 2000 RBCs by microscopy until day 32 post-infection (p.i.). Furthermore, the hematological parameters, including hemoglobin (HGB), RBCs, and HCT, were determined by an automatic hematology analyzer (Celltac α MEK-6450, Nihon Kohden, Japan) every 4 days. After finishing the in vivo experiment, an anesthetic system using an inhaler containing isoflurane was used to euthanize all mice by placing them in the induction chamber, adjusting the oxygen flowmeter to 0.8 to 1.5 L/min and vaporizer to 3 to 5%. […]

Leishmania = test system: Leishmania; design: method as in PMID 28968213; conditions: cited from earlier work

IC50 (B. caballi; Babesia caballi, 96 h, read-out: IC50): 0.038 ± 0.01 µg/mL (≈ 0.104 µM)
IC50 (T. equi; 96 h, read-out: IC50): 0.035 ± 0.01 µg/mL (≈ 0.0954 µM)
IC50 (B. divergens; 96 h, read-out: IC50): 0.014 ± 0.002 µg/mL (≈ 0.0382 µM)
IC50 (B. bovis; Bos taurus, 96 h, read-out: IC50): 0.015 ± 0.001 µg/mL (≈ 0.0409 µM)
IC50 (B. bigemina; 96 h, read-out: IC50): 0.26 ± 0.03 µg/mL (≈ 0.709 µM)
SMILES: O=C1C(O)=C([C@H]2CC[C@H](c3ccc(Cl)cc3)CC2)C(=O)c2ccccc21 [ATV, atovaquone]
EC50 ([1]; Homo sapiens): > 100 µg/mL
EC50 ([2]; Mus musculus, NIH3T3, NIH/3 T3 cell viability): > 100 µg/mL
EC50 ([3]; Bos taurus): > 100 µg/mL
Selective indices HFF (B. caballi; EC50 HFF / IC50 B. caballi): ˃ 2631.6
Selective indices MDBK (B. caballi; EC50 MDBK / IC50 B. caballi): ˃ 2631.6
Selective indices NIH/3 T3 (B. caballi; EC50 NIH/3 T3 / IC50 B. caballi): ˃ 2631.6
Selective indices HFF (T. equi; EC50 HFF / IC50 T. equi): ˃ 2857.1
Selective indices MDBK (T. equi; EC50 MDBK / IC50 T. equi): ˃ 2857.1
Selective indices NIH/3 T3 (T. equi; EC50 NIH/3 T3 / IC50 T. equi): ˃ 2857.1
Selective indices HFF (B. divergens; EC50 HFF / IC50 B. divergens): ˃ 7142.9
Selective indices MDBK (B. divergens; EC50 MDBK / IC50 B. divergens): ˃ 7142.9
Selective indices NIH/3 T3 (B. divergens; EC50 NIH/3 T3 / IC50 B. divergens): ˃ 7142.9
Selective indices HFF (B. bovis; EC50 HFF / IC50 B. bovis): ˃ 6666.7
Selective indices MDBK (B. bovis; EC50 MDBK / IC50 B. bovis): ˃ 6666.7
Selective indices NIH/3 T3 (B. bovis; EC50 NIH/3 T3 / IC50 B. bovis): ˃ 6666.7
Selective indices HFF (B. bigemina; EC50 HFF / IC50 B. bigemina): ˃ 384.6
Selective indices MDBK (B. bigemina; EC50 MDBK / IC50 B. bigemina): ˃ 384.6
Selective indices NIH/3 T3 (B. bigemina; EC50 NIH/3 T3 / IC50 B. bigemina): ˃ 384.6

IC50 (B. caballi): 0.003 ± 0.001 µg/mL
IC50 (T. equi): 0.37 ± 0.01 µg/mL
IC50 (B. divergens): 0.35 ± 0.03 µg/mL
IC50 (B. bovis): 0.25 ± 0.02 µg/mL
IC50 (B. bigemina): 0.11 ± 0.01 µg/mL
SMILES: CC(=O)NCC(=O)O.CC(=O)NCC(=O)O.N=C(N)c1ccc(N=NNc2ccc(C(=N)N)cc2)cc1 [DMA, diminazene aceturate]
Restriction of the parasitemia level (B. microti; 25 mg kg−1, eighth day p.i., mice): 93.2%
Level of parasitemia (B. microti; 25 mg kg−1 intraperitoneally for 5 days, 8 days p.i., BALB/c mice): 3.9%
Anemia development in mice (B. microti; B. microti-infected mice): prohibited anemia development
EC50 HFF [1]: ˃ 100 μg/mL
EC50 NIH/3 T3 ([2]; NIH/3 T3 cell viability): ˃ 100 μg/mL
EC50 MDBK [3]: ˃ 100 μg/mL

SMILES: O=C/C=C/c1ccccc1 [cinnamaldehyde]
IC50 antileishmanial effect (Leishmania): 0.681 µg/mL (≈ 5.15 µM)

SMILES: C=CCc1ccc(O)c(OC)c1 [eugenol]
IC50 antileishmanial effect (Leishmania): 1.43 µg/mL (≈ 8.68 µM)
